pIC50: −log10 of the molar value.
Target: T1, Autotaxin (Homo sapiens, UniProt Q13822)
Test: Inhibition of human ATX using FS-3 as substrate measured every 5 mins for 30 mins by fluorescence assay

Row | Compound | pIC50
1 | NC(=O)c1cc(-c2csc(NC3CCN(C(=O)OCc4ccccc4)C3)n2)ccc1O (configuration not stated) | 5.35
2 | O=C(NC1CCN(C(=O)OCc2cc(Cl)cc(Cl)c2)CC1)c1nc(-c2ccc(CP(=O)(O)O)cc2)cs1 | 8.66
3 | O=C(Nc1cccc(Nc2nc(-c3ccc(O)c(O)c3)cs2)c1)OCc1ccccc1 | 5.03
4 | O=C(Cc1cccc(Nc2nc(-c3ccc(O)c(O)c3)cs2)c1)NCc1ccccc1 | 5.09
5 | CS(=O)(=O)Nc1ccc(-c2csc(C(=O)NC3CCN(C(=O)OCc4cc(Cl)cc(Cl)c4)CC3)n2)cc1 | 8.52
6 | O=C(NC1CCN(C(=O)OCc2ccccc2)CC1)c1nc(-c2ccc(CP(=O)(O)O)cc2)cs1 | 7.86
7 | CN(c1ccc(S(N)(=O)=O)cc1)c1nc(-c2ccc(O)c(C(=O)O)c2)cs1 | 4.98
8 | O=C(OCc1ccccc1)N1CCC(Nc2nc(-c3ccc(CP(=O)(O)O)cc3)cs2)CC1 | 7.12
9 | NS(=O)(=O)c1cc(-c2csc(C(=O)NC3CCN(C(=O)OCc4cc(Cl)cc(Cl)c4)CC3)n2)ccc1Cl | 8.35
10 | O=C(O)c1cc(-c2csc(NC3CCN(C(=O)OCc4ccccc4)C3)n2)ccc1O (configuration not stated) | 4.96

Continued, values first:

Row | pIC50 | Compound
11 | < 5.00 | CN(c1ccc2c(c1)CS(=O)(=O)N2)c1nc(-c2ccc(O)c(C(=O)O)c2)cs1
12 | 5.91 | O=C(OCc1ccccc1)N1CCC(Nc2nc(-c3ccc(O)c(O)c3)cs2)C1 (configuration not stated)
13 | 5.59 | CS(=O)(=O)Nc1ccc(-c2csc(N(Cc3ccccn3)c3ccc4nn[nH]c4c3)n2)cc1
14 | 7.99 | O=C(OCc1ccccc1)N1CCC(Nc2nc(-c3ccc(CP(=O)(O)O)cc3)cs2)C1 (configuration not stated)
15 | 5.87 | NS(=O)(=O)c1cc(-c2csc(NC3CCN(C(=O)OCc4ccccc4)C3)n2)ccc1Cl (configuration not stated)
16 | 4.98 | NS(=O)(=O)c1cc(-c2csc(C(=O)Nc3cccc(C(=O)O)c3)n2)ccc1Cl
17 | 7.52 | COc1ccc(-c2csc(C(=O)NC3CCN(C(=O)OCc4cc(Cl)cc(Cl)c4)CC3)n2)cc1
18 | 4.94 | O=S(=O)(Cc1cccc(Nc2nc(-c3ccc(O)c(O)c3)cs2)c1)NCc1ccccc1
19 | < 7.00 | CS(=O)(=O)Nc1cccc(-c2csc(NC3CCN(C(=O)OCc4cc(Cl)cc(Cl)c4)CC3)n2)c1
20 | 5.18 | CN(c1ccc(S(N)(=O)=O)cc1)c1nc(-c2ccc(O)c(C(N)=O)c2)cs1
21 | 5.89 | NS(=O)(=O)c1cc(-c2csc(NC3CCN(C(=O)OCc4ccccc4)CC3)n2)ccc1Cl
22 | 5.24 | CN(c1ccc(S(N)(=O)=O)cc1)c1nc(-c2ccc(O)c(CO)c2)cs1
23 | 7.20 | O=C(NC1CCN(C(=O)OCc2cc(Cl)cc(Cl)c2)CC1)c1nc(-c2ccc(Cl)cc2)cs1
24 | 6.30 | NS(=O)(=O)c1cc(-c2csc(C(=O)NC3CCN(C(=O)OCc4ccccc4)CC3)n2)ccc1Cl
25 | 5.68 | NS(=O)(=O)c1cc(-c2csc(C(=O)NCc3ccc(Cl)cc3)n2)ccc1Cl

Target: T1, Autotaxin
Test: Inhibition of ATX in human plasma using LPC as substrate pretreated for 15 mins followed by substrate addition measured after 3 hrs by LC-MS/MS analysis

Row | pIC50 | Compound
26 | 7.82 | O=C(NC1CCN(C(=O)OCc2cc(Cl)cc(Cl)c2)CC1)c1nc(-c2ccc(CP(=O)(O)O)cc2)cs1
27 | 6.13 | CS(=O)(=O)Nc1ccc(-c2csc(C(=O)NC3CCN(C(=O)OCc4cc(Cl)cc(Cl)c4)CC3)n2)cc1

Source: ChEMBL document CHEMBL4052794, “Design, synthesis, docking and biological evaluation of 4-phenyl-thiazole derivatives as autotaxin (ATX) inhibitors” (Bioorg Med Chem Lett, 2017)
